In series [1] the test system is trypsin. As to the kind of experiment: in vitro stability against trypsin. It is filed as in vitro ADME. As to conditions: 0 min.
Series [2] concerns FaSSIF/pancreatin. As to the kind of experiment: in vitro stability against FaSSIF/pancreatin. It is filed as in vitro ADME. Particulars: 0 min.
For series [3] the following is noted: in vivo; cited from earlier work.
The test system of series [4] is primary microglia. As to the kind of experiment: α-syn PFF induced microglial activation, cytokine mRNA by qPCR. It counts as cell-based, mouse. As to conditions: agonist 2 μM, 150 nM PFF for 4 h. (Real-time PCR tracks product formation cycle by cycle.)
Method: Mouse microglia isolated from postnatal day 2 CD1 mouse brain were obtained from ScienCell Research Laboratories (M1900, Carlsbad, CA). […] Pre-condition: 24 hrs non-serum condition.
Total RNA from cultured cells was extracted with a RNA isolation kit (Qiagen, Valencia, CA, USA) following the instructions provided by the company. RNA concentration was measured spectrophotometrically using a NanoDrop 2000 (Biotek, Winooski, VT, USA). Subsequently, 1-2 μg of total RNA was reverse transcribed to cDNA using the High-Capacity cDNA Reverse Transcription System (Life Technologies, Grand Island, NY, USA). Comparative qPCR was performed in duplicate or triplicate for each sample using fast SYBR Green Master Mix (Life Technologies) and ViiA 7 Real-Time PCR System (Applied Biosystems, Foster City, CA, USA). The expression levels of target genes were normalized to the expression of Actb and calculated based on the comparative cycle threshold Ct method (2^−ΔΔCt).

We go through two molecules from US20260124278A1, “COMPOSITIONS AND METHODS FOR TREATMENT OF NEUROLOGICAL DISORDERS” (D&D Pharmatech Inc., priority 2022, published 2026).

For orientation: half-life means how long it takes for the measured level to halve.

On to `CC[C@H](C)[C@H](NC(=O)[C@H](Cc1ccccc1)NC(=O)[C@H](CCC(=O)O)NC(=O)[C@H](CCCCNC(=O)COCCOCCNC(=O)COCCOCCNC(=O)CC[C@H](NC(=O)CCCCCCCCCCCCCCCCC(=O)O)C(=O)O)NC(=O)[C@H](C)NC(=O)[C@H](C)NC(=O)[C@H](CCC(N)=O)NC(=O)CNC(=O)[C@H](CCC(=O)O)NC(=O)[C@H](CC(C)C)NC(=O)[C@H](Cc1ccc(O)cc1)NC(=O)[C@H](CO)NC(=O)[C@H](CO)NC(=O)[C@@H](NC(=O)[C@H](CC(=O)O)NC(=O)[C@H](CO)NC(=O)[C@@H](NC(=O)[C@H](Cc1ccccc1)NC(=O)[C@@H](NC(=O)CNC(=O)[C@H](CCC(=O)O)NC(=O)C(C)(C)NC(=O)[C@@H](N)Cc1cnc[nH]1)[C@@H](C)O)[C@@H](C)O)C(C)C)C(=O)N[C@@H](C)C(=O)N[C@@H](Cc1c[nH]c2ccccc12)C(=O)N[C@@H](CC(C)C)C(=O)N[C@H](C(=O)N[C@@H](CCCNC(=N)N)C(=O)NCC(=O)N[C@@H](CCCNC(=N)N)C(=O)NCC(=O)O)C(C)C` [Semaglutide], for which the “Remaining amount (%) after trypsin treatment” value in series [1] was found to be 100.0%. Further, the “Remaining amount (%) after FaSSIF/Pancreatin treatment” value in series [2] was found to be 100.0%.

Consider “NLY01: long-acting PEGylated form of exenatide”, for which the half-life in series [3] is 88 h. Besides, the “α-syn PFF induced mRNA expression of TNF-α, IL-1α, IL-1β, C1q and IL-6” value in series [4] is “significantly reduces”.
